SMILES strings stand for the structures. pKi: −log10 of the molar value.

For one assay, the target named is D(3) dopamine receptor (Homo sapiens, UniProt P35462). In words: Ability to displace [125I]iodosulpiride from human dopamine D3 (hD3) receptor transfected into CHO cells. In kind it is cell-based.
For a further assay, the target named is D(2) dopamine receptor (Homo sapiens, UniProt P14416). Description: Ability to displace [125I]iodosulpiride from human dopamine D2 (hD2) receptor transfected into CHO cells. In kind it is cell-based.
D(2) dopamine receptor, sequence (P14416 whole entry): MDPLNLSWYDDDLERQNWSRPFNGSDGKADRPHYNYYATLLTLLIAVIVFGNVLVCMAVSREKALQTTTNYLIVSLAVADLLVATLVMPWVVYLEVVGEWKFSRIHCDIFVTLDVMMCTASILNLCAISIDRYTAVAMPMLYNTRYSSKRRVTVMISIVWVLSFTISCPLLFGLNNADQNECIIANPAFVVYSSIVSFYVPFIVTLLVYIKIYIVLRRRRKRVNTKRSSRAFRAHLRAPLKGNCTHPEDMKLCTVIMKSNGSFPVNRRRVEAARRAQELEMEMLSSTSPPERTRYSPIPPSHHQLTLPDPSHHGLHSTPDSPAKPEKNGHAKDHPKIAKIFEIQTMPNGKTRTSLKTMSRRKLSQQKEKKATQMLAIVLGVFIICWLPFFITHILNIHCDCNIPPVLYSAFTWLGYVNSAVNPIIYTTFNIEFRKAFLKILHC

D(3) dopamine receptor, sequence (P35462 whole entry): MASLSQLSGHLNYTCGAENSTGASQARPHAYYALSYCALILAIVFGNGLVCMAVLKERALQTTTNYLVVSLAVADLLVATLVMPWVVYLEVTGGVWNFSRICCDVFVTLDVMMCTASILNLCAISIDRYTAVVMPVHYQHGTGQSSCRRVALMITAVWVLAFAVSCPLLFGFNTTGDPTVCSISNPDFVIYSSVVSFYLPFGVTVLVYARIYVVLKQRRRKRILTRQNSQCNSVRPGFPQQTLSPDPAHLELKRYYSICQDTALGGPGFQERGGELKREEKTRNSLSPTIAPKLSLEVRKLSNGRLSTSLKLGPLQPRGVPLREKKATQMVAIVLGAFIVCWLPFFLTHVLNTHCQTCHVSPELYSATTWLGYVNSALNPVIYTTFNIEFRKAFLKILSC

As for `N#Cc1ccc2c(c1)[C@@H]1CN(Cc3ccccc3)C[C@H]1CO2`, the results for the negative-log Ki (pKi) at D(3) dopamine receptor and at D(2) dopamine receptor were 8.20 and 7.50, respectively.
In the case of `N#Cc1ccc2c(c1)[C@@H]1CN(CCCCNC(=O)c3ccc(-c4ccccc4)cc3)C[C@H]1CO2`, the negative logarithm of the Ki (pKi) on D(3) dopamine receptor is 9.20; on D(2) dopamine receptor, 7.30.
For `N#Cc1ccc2c(c1)C1CN(Cc3ccccc3)CC1CO2` (trans isomer), the negative logarithm of the Ki (pKi) was 8.40 on D(3) dopamine receptor and 7.60 at D(2) dopamine receptor.
Regarding `N#Cc1ccc2c(c1)[C@H]1CN(CCCCNC(=O)c3ccc(-c4ccc(N)cc4)cc3)C[C@@H]1CO2` (single isomer, unassigned), the results for the pKi on D(3) dopamine receptor and at D(2) dopamine receptor were 9.70 and 7.70, respectively.
For `CC(=O)Nc1ccc(CCN2C[C@@H]3COc4ccc(C#N)cc4[C@H]3C2)cc1`, the pKi on D(3) dopamine receptor is 9.00; on D(2) dopamine receptor, 7.50.
Take `N#Cc1ccc2c(c1)C1CN(Cc3ccccc3)CC1CO2` (cis isomer): the pKi at D(3) dopamine receptor is 7.00; at D(2) dopamine receptor it was 6.50.
Regarding `CC(=O)Nc1ccc(CN2C[C@@H]3COc4ccc(C#N)cc4[C@H]3C2)cc1`, the negative-log Ki (pKi) on D(3) dopamine receptor was 8.00; at D(2) dopamine receptor, 7.90.
On the same counts, the results for `Brc1ccc2c(c1)C1CN(Cc3ccccc3)CC1CO2` (stereo in doubt; cis) are 7.00 and 6.30.
`Fc1ccc2c(c1)C1CN(Cc3ccccc3)CC1CO2` (trans isomer): the pKi was 8.10 at D(3) dopamine receptor and 7.60 on D(2) dopamine receptor.
On the same counts, the results for `N#Cc1ccc2c(c1)[C@@H]1CN(Cc3ccc(F)cc3)C[C@H]1CO2` are 7.80 and 7.40.
For `CC(=O)Nc1ccc(CN2C[C@H]3COc4ccc(C#N)cc4[C@@H]3C2)cc1` the same measures were 7.70 and 7.50.
Regarding `CC(=O)c1ccc(C(=O)Nc2ccc(CCN3CC4COc5ccc(C#N)cc5C4C3)cc2)cc1` (stereo not drawn), the values for the negative-log Ki (pKi) at D(3) dopamine receptor and on D(2) dopamine receptor were 9.10 and 7.70, respectively.
For `CC(=O)Nc1ccc(CCN2CC3COc4ccc(C#N)cc4C3C2)cc1` (stereo not drawn) the same measures were 9.00 and 7.40.
As for `Clc1ccc2c(c1)C1CN(Cc3ccccc3)CC1CO2` (trans isomer), the pKi is 7.80 on D(3) dopamine receptor and 7.50 at D(2) dopamine receptor.
For `c1ccc(CN2CC3COc4ccccc4C3C2)cc1` (trans isomer) the same measures were 6.90 and 6.50.
`COc1ccc2c(c1)C1CN(Cc3ccccc3)CC1CO2` (stereo not drawn): the pKi at D(3) dopamine receptor was 7.10; on D(2) dopamine receptor it was 6.70.
As to `N#Cc1ccc2c(c1)C1CN(CCCCNC(=O)c3ccc(-c4ccccc4)cc3)CC1CO2` (stereo not drawn), the negative logarithm of the Ki (pKi) on D(3) dopamine receptor is 9.10; at D(2) dopamine receptor it was 7.10.
Consider `CC(=O)Nc1ccc(CCN2C[C@H]3COc4ccc(C#N)cc4[C@@H]3C2)cc1`, for which the pKi at D(3) dopamine receptor is 8.50; on D(2) dopamine receptor it was 7.40.
For the compound `N#Cc1ccc2c(c1)OCC1CN(Cc3ccccc3)CC21` (trans isomer), the pKi was 7.60 on D(3) dopamine receptor and 6.30 on D(2) dopamine receptor.
For `COc1ccc2c(c1)OCC1CN(Cc3ccccc3)CC21` (stereo not drawn) the same measures were 7.10 and 6.60.
On the same counts, the results for `CS(=O)(=O)Nc1ccc(CCN2CC3COc4ccc(C#N)cc4C3C2)cc1` (stereo not drawn) are 8.80 and 7.60.
Regarding `CC(=O)Nc1ccc(CN2CC3COc4ccc(C#N)cc4C3C2)cc1` (stereo not drawn), the pKi on D(3) dopamine receptor was 7.90; on D(2) dopamine receptor it was 7.60.
For `Brc1ccc2c(c1)C1CN(Cc3ccccc3)CC1CO2` (stereo in doubt; trans) the same measures were 7.80 and 7.30.
Turning to `N#Cc1ccc2c(c1)[C@H]1CN(CCCCNC(=O)c3ccc(-c4ccccc4)cc3)C[C@@H]1CO2`, the pKi is 9.50 at D(3) dopamine receptor and 7.50 on D(2) dopamine receptor.
For the compound `N#Cc1ccc2c(c1)C1CN(Cc3ccccc3)CC1CC2` (trans isomer), the pKi on D(3) dopamine receptor is 8.20; on D(2) dopamine receptor, 8.00.
For the compound `N#Cc1ccc2c(c1)C1CN(Cc3ccc(F)cc3)CC1CO2` (stereo not drawn), the figures for the pKi at D(3) dopamine receptor and on D(2) dopamine receptor were 8.10 and 7.10, respectively.
`CCCN1CC2COc3ccc(C#N)cc3C2C1` (stereo not drawn): the pKi on D(3) dopamine receptor was 7.80; on D(2) dopamine receptor, 6.90.
On the same counts, the results for `N#Cc1ccc2c(c1)[C@H]1CN(Cc3ccccc3)C[C@@H]1CO2` are 8.60 and 7.70.
For `N#Cc1ccc2c(c1)[C@H]1CN(Cc3ccc(F)cc3)C[C@@H]1CO2` the same measures were 8.20 and 7.60.
